Assay results from patent publication US10485815B2, “Substituted nucleosides, nucleotides and analogs thereof” (Alios BioPharma, Inc., priority 2012, dated 2019).

What was measured:
[1] = system: Influenza strain A/WSN/33 (H1N1); test: microbe, parasite or virus in culture; format: cell-based; conditions: A549, 20 h, read-out: % Inhibition
[2] = system: human parainfluenza virus 3 (hPIV3, ATCC: VR-93); test: Parainfluenza virus-3 (PIV-3) RT-PCR assay in A549 cells; format: cell-based; conditions: Human respirovirus 3, 168 h, hPIV3 MOI 0.1, 7 days after infection
human metapneumovirus = test: Human metapneumovirus (hMPV) TCID50 assay in LLC-MK2 cells; format: cell-based; conditions: 168 h, 7 days infection
Description: LLC-MK2 cells were grown in 24-well plates to a confluency of 90% in the presence of minimal essential medium (MEM) supplemented with 10% fetal bovine serum and antibiotics (C-EMEM). The cells were then washed twice with non-complete minimal essential medium (NC-EMEM). Test articles were dissolved in DMSO to a stock concentration of 10 mM. An aliquot of 0.5 mL of the test article at various concentrations was then inoculated in triplicate wells and incubated for 60 minutes at 37° C. with 5% CO2 for the diffusion of test article into LLC-MK2 cells. […] An aliquot of 0.1 mL was then inoculated into all the wells except for the negative and test article toxicity control wells. Upon infection, the plates were incubated for 7 days at 37° C. at 5% CO2. After incubation, the plates were examined under microscopy to record cytotoxicity. The supernatants collected for viral quantification using a standard TCID50 assay using LLC-MK2 cells as the indicator cells. The data was analyzed with Prism software with EC50 defined as drug concentration that reduced the viral load 50% from the viral control (VC).

RSV A2 (ATCC: VR-1540) = test: RSV RT-PCR based assay in HEp-2 cells; format: cell-based; conditions: human respiratory syncytial virus, 96 h; RT-PCR assay, HEp-2 cells, RSV A2 MOI 0.1, 4 days after infection; read-out: EC50
human PIV type 3 = test: Parainfluenza virus-3 (PIV-3) plaque assay in MA-104 cells; format: cell-based; conditions: MA104, 72 hours infection
Description: MA-104 cells were grown in 24-well plates to a confluency of 90% in the presence of minimal essential medium (MEM) supplemented with 10% fetal bovine serum and antibiotics (C-EMEM). The cells were then washed twice with non-complete minimal essential medium (NC-EMEM). Test articles were dissolved in DMSO to a stock concentration of 10 mM. An aliquot of 0.5 mL of the test article at various concentrations was then inoculated in triplicate wells and incubated for 60 minutes at 37° C. with 5% CO2 for the diffusion of test article into MA-104 cells. […] An aliquot of 0.1 mL was then inoculated into all the wells except for the negative and test article toxicity control wells. Upon infection, the plates were incubated for 72 hours at 37° C. at 5% CO2. After incubation, the plates were examined under microscopy to record cytotoxicity. The supernatants collected for viral quantification using a standard plaque assay using MA-104 cells as the indicator cells. To perform the plaques assay, MA-104 cells were grown to confluence in 24-well plates. The cells were washed with serum-free medium prior to inoculation of duplicate wells with serial 10-fold dilutions of supernatant sample. After 1 hour incubation at 37° C., the samples were aspirated and 1.0 mL of methyl cellulose overlay media was added to each well. […]

hPIV3-eGFP = test: microbe, parasite or virus in culture; format: cell-based, human parainfluenza virus 3; conditions: Human respirovirus 3, A549, 72 h

Row | SMILES | EC50 [1] | EC50 [2] | EC50 (human metapneumovirus) | EC50 (RSV A2 (ATCC: VR-1540)) | EC50 (human PIV type 3) | EC50 (hPIV3-eGFP)
1 | CC[C@]1(CO)O[C@@H](n2ccc(N)nc2=O)[C@H](F)[C@@H]1O [Compound 3a] | 100 to 250 µM | < 20 µM | < 20 µM | < 1 µM | < 20 µM | < 20 µM
2 | Nc1ccn([C@@H]2O[C@@](CO)(CCl)[C@@H](O)[C@H]2F)c(=O)n1 [Compound 7a] | 100 to 250 µM | < 20 µM | < 20 µM | < 1 µM | < 20 µM | < 20 µM
